Test results from patent publication US5707815A, “Mammalian monocyte chemoattractant protein receptors and assays using them” (Regents of the University of California, priority 1995, dated 1998).

Assays:
MCP-1RB receptor = format: cell-based, human
Protocol: To investigate inhibition of adenylyl cyclase activity, HEK-293 cells stably-transfected with the MCP-1RB receptor and the MIP-1α/RANTES receptor were grown until confluent in 24-well tissue culture dishes and labeled overnight with 2 μCi/ml of [^3 H]adenine (25-30 Ci/mmol) (New England Nuclear, Boston, Mass.) in MEM-EBSS supplemented with 10% FCS. The next day, the cells were washed by incubation at room temperature with 0.5 ml of serum-free MEM-EBSS media supplemented with 10 mM HEPES, 1 mg/ml BSA, and 1 mM IBMX (3-isobutyl-1-methylxanthine) for 5 min. […] The incubation was terminated by replacement of the media with 1 ml of ice-cold 5% TCA (trichloroacetic acid), 1 mM cAMP, and 1 mM ATP (Sigma). Following incubation at 4° C. for 30 min, the labeled [^3 H]ATP and [3H]cAMP pools were separated and quantitated by chromatography on Dowex 50W (200-400 mesh, hydrogen form, from Sigma) and neutral alumina columns (also from Sigma), as described in Hung, J. Biol. Chem. 267:20831-34 (1992) and Wong, Nature 351: 63-65 (1991). The 1 ml acid supernatant was loaded onto a 1-ml Dowex 50W column and the ATP pool eluted with 3 ml of H2 O. The Dowex 50W columns were then placed over 1-ml alumina columns, and 10 ml of H2 O was added to the Dowex resin and the eluant allowed to drop directly onto the neutral alumina. The cAMP pool was then eluted directly from the alumina with 5 ml of 0.1M imidazole/0.01mM sodium azide. The [^3 H]ATP and [^3 H]cAMP fractions were counted by liquid scintillation spectroscopy. The cAMP pool for each sample was normalized to its own ATP pool and expressed as a ratio by the equation (cAMP cpms/ATP cpms)×100. In each experiment full dose-response curves were generated and expressed as a percent of the forskolin control.
Inhibition of MCP-1RB receptor activation by bordetella pertussis toxin was investigated. Pertussis toxin (List Biological Labs, Inc., Campbell, Calif.) was dissolved in 0.01M sodium phosphate, pH 7.0, 0.05M sodium chloride and diluted into normal serum containing media at final concentrations of 0.1 ng/ml to 100 ng/ml, and incubated with cells overnight (14-16 h) at 37° C. The conditions of the Pertussis toxin treatment of the 293 cells were identical for calcium fluorimetric and adenylyl cyclase experiments. In the adenylyl cyclase experiments, the Pertussis toxin was added at the same time as [^3 H]adenine.
Dose response curves generated in the calcium fluorimetric and adenylyl cyclase inhibition assays were fit by a nonlinear least squares program to the logistic equation:
Effect=max effect/[1+(EC50 /(agonist)^n)]
where n and EC50 represent the Hill coefficient and the agonist concentration that elicited a half-maximal response, respectively, and were derived from the fitted curve. Curve fitting was done with the computer program "Prism" (by Graph Pad, San Diego, Calif.). Results represent the mean ±SE. The 95% confidence intervals (CI) of the EC50 and IC50 values, when given, were calculated from the log EC50 and IC50 values, respectively.

MIP-1α/RANTES receptor = assay: Ca45 efflux assay in Xenopus oocytes, MIP-1α/RANTES receptor examined in parallel; format: cell-based
monocyte = details: Yoshimura, J. Immunol. 145:292-97 (1990); cited from earlier work
MCP-1 receptor = assay: Total inositol phosphate accumulation in MCP-1 receptor transfected 293 cells; format: cell-based, human; details: 293 cells stably expressing recombinant MCP-1 receptor
Protocol: Inositol (1,4,5)-triphosphate (IP3) mobilizes intracellular calcium in response to activation of a wide spectrum of receptors, including many seven-transmembrane-domain receptors. Hung, J. Ceil. Biol. 116:827-32 (1992); Putney, Trends Endocrinol. Metab. 5:256-60 (1994). To investigate this mobilization, total inositol phosphate accumulation was determined as described in Hung, J. Cell Biol. 116:827-32 (1992). HEK-293 cells were grown until confluent in 24-well tissue culture dishes and labeled overnight with 2 uCi/ml [^3 H]myo-inositol (23 Ci/mmol) (New England Nuclear, Boston, Mass.) in inositol-free MEM-EBSS supplemented with 10% dialyzed FCS. Following labeling, the media were removed and the cells were incubated at room temperature for 5-10 min in 0.5 ml of serum-free MEM-EBSS media supplemented with 10 mM HEPES, 1 mg/ml BSA, and 10 mM LiCl. […] The incubation was terminated by removal of the incubation media and addition of 1 ml of ice-cold 20 mM formic acid. Plates were incubated at 4° C. for 30 min before the supernatants were applied to 1-ml Dowex AG1-X8 (100-200 mesh, formate form, from Sigma) chromatography columns. Columns were washed with 8 ml of water followed by 5 ml of 40 mM sodium formate. Total [^3 H]inositol phosphates were eluted with 5 ml of 2M ammonium formate/0.1M formic acid and quantitated by liquid scintillation spectroscopy. […]

[1] = test system: undifferentiated human HL-60 cells; assay: MCP-1 induced calcium flux in HL-60 cells; format: cell-based; details: undifferentiated HL-60 cells
Protocol: (§1) Because monocytes are difficult to isolate in usable quantity and express less than 2000 high affinity MCP-1 binding sites per cell, a cultured cell line that responded well to MCP-1 had to be identified. Using the calcium effiux assay as described in Vu, Cell 64:1057-68(1991), MCP-1 induced calcium fluxes in various cell lines were measured. […] In contrast, a dose-dependent calcium flux was detected in MM6 cells, with half maximal stimulation at 4nM MCP-1.

[2] = test system: human erythroleukemia (HEL) cells; assay: MCP-1 induced calcium flux in HEL cells; format: cell-based
Protocol: as §1

[3] = test system: untransfected or pcDNA3 transfected 293 cell controls; assay: cAMP formation in untransfected or pcDNA3 transfected 293 cell controls; format: cell-based, human; details: cells without receptor

Q: What does the source list for “monocyte chemoattractant protein-1 [MCP-1]”?
A: selectivity for the MCP-1 receptor (MCP-1RB receptor): at least 9000 fold; block of forskolin-induced increase of cAMP (MCP-1RB receptor; co-addition with forskolin): 78%; reduction of basal cAMP accumulation (MCP-1RB receptor; no forskolin, p<0.01): 55%; receptor signaling in response to chemokine (MIP-1α/RANTES receptor): not to MCP-1; EC50 for monocyte chemotaxis (monocyte): subnanomolar; hydrolysis of PI (phosphatidylinositol) (MCP-1 receptor): little, if any; MCP-1 induced calcium flux [1]: No calcium flux was detected; MCP-1 induced calcium flux [2]: No calcium flux was detected; effect on cAMP formation [3]: neither stimulated nor inhibited
